Reference: US20100099561A1, “HETEROBICYCLIC ALKYLTHIO-BRIDGED ISOXAZOLINES” (E.I. DU PONT DE NEMOURS AND COMPANY, priority 2008, published 2010)

Legend:
Format in all cases: in vivo
[1] = tested on: barnyardgrass (Echinochloa crus-galli); assay: Test A preemergence, barnyardgrass; details: 0 to 100 scale (0 no effect, 100 complete control)
From the text: (§1) Seeds of barnyardgrass (Echinochloa crus-galli), large crabgrass (Digitaria sanguinalis), giant foxtail (Setaria faberi), morningglory (Ipomoea spp.), pigweed (Amaranthus retroflexus), velvetleaf (Abutilon theophrasti), wheat (Triticum aestivum), and corn (Zea mays) were planted into a blend of loam soil and sand and treated preemergence with a directed soil spray using test chemicals formulated in a non-phytotoxic solvent mixture which included a surfactant. At the same time these species were also treated with postemergence applications of test compounds formulated in the same manner. Plants ranged in height from two to ten cm and were in the one- to two-leaf stage for the postemergence treatment. Treated plants and untreated controls were maintained in a greenhouse for approximately ten days, after which time all treated plants were compared to untreated controls and visually evaluated for injury. Plant response ratings, summarized in Table A, are based on a 0 to 100 scale where 0 is no effect and 100 is complete control. A dash (-) response means no test result.

[2] = tested on: large crabgrass (Digitaria sanguinalis); assay: Test A preemergence, large crabgrass; details: 0 to 100 scale (0 no effect, 100 complete control)
From the text: as §1

[3] = tested on: giant foxtail (Setaria faberi); assay: Test A preemergence, giant foxtail; details: 0 to 100 scale (0 no effect, 100 complete control)
From the text: as §1

[4] = tested on: morningglory (Ipomoea spp.); assay: Test A preemergence, morningglory; details: 0 to 100 scale (0 no effect, 100 complete control)
From the text: as §1

[5] = tested on: pigweed (Amaranthus retroflexus); assay: Test A preemergence, pigweed; details: 0 to 100 scale (0 no effect, 100 complete control)
From the text: as §1

[6] = tested on: velvetleaf (Abutilon theophrasti); assay: Test A preemergence, velvetleaf; details: 0 to 100 scale (0 no effect, 100 complete control)
From the text: as §1

[7] = tested on: wheat (Triticum aestivum); assay: Test A preemergence, wheat; details: 0 to 100 scale (0 no effect, 100 complete control)
From the text: as §1

corn (Zea mays) [8] = assay: Test A preemergence, corn; details: 0 to 100 scale (0 no effect, 100 complete control)
From the text: as §1

[9] = tested on: barnyardgrass (Echinochloa crus-galli); assay: Test A postemergence, barnyardgrass; details: 0 to 100 scale (0 no effect, 100 complete control)
From the text: as §1

[10] = tested on: large crabgrass (Digitaria sanguinalis); assay: Test A postemergence, large crabgrass; details: 0 to 100 scale (0 no effect, 100 complete control)
From the text: as §1

[11] = tested on: giant foxtail (Setaria faberi); assay: Test A postemergence, giant foxtail; details: 0 to 100 scale (0 no effect, 100 complete control)
From the text: as §1

[12] = tested on: morningglory (Ipomoea spp.); assay: Test A postemergence, morningglory; details: 0 to 100 scale (0 no effect, 100 complete control)
From the text: as §1

[13] = tested on: pigweed (Amaranthus retroflexus); assay: Test A postemergence, pigweed; details: 0 to 100 scale (0 no effect, 100 complete control)
From the text: as §1

[14] = tested on: velvetleaf (Abutilon theophrasti); assay: Test A postemergence, velvetleaf; details: 0 to 100 scale (0 no effect, 100 complete control)
From the text: as §1

[15] = tested on: wheat (Triticum aestivum); assay: Test A postemergence, wheat; details: 0 to 100 scale (0 no effect, 100 complete control)
From the text: as §1

corn (Zea mays) [16] = assay: Test A postemergence, corn; details: 0 to 100 scale (0 no effect, 100 complete control)
From the text: as §1

rice (Oryza sativa) = assay: Test B flooded paddy test, rice; details: Flood, scale 0 to 100
From the text: (§2) Plant species in the flooded paddy test consisted of rice (Oryza sativa), umbrella sedge (Cyperus difformis), ducksalad (Heteranthera limosa) and barnyardgrass (Echinochloa crus-galli) grown to the 2-leaf stage for testing. At time of treatment, test pots were flooded to 3 cm above the soil surface, treated by application of test compounds directly to the paddy water, and then maintained at that water depth for the duration of the test. Treated plants and controls were maintained in a greenhouse for 13 to 15 days, after which time all species were compared to controls and visually evaluated. Plant response ratings, summarized in Table B, are based on a scale of 0 to 100 where 0 is no effect and 100 is complete control. A dash (-) response means no test result.

[17] = tested on: umbrella sedge (Cyperus difformis); assay: Test B flooded paddy test, umbrella sedge; details: Flood, scale 0 to 100
From the text: as §2

[18] = tested on: ducksalad (Heteranthera limosa); assay: Test B flooded paddy test, ducksalad; details: Flood, scale 0 to 100
From the text: as §2

[19] = tested on: barnyardgrass (Echinochloa crus-galli); assay: Test B flooded paddy test, barnyardgrass; details: Flood
From the text: as §2

[20] = 250 g ai/ha, scale 0 to 100 (0 no effect, 100 complete control)

With CC1(C)CC(S(=O)(=O)Cc2c(C(F)(F)C(F)(F)F)nc3n(c2=O)CCCO3)=NO1 [Compound 55] the “Plant response rating, Barnyardgrass” value ([1]; 125 g ai/ha) was 50, the “Plant response rating, Barnyardgrass” value ([1]; 500 g ai/ha) was 80 and the “Plant response rating, Crabgrass, Large” value ([2]; 125 g ai/ha) was 0. For the same compound, the “Plant response rating, Crabgrass, Large” value ([2]; 500 g ai/ha) was 90, the “Plant response rating, Foxtail, Giant” value ([3]; 125 g ai/ha) was 80 and the “Plant response rating, Foxtail, Giant” value ([3]; 500 g ai/ha) was 90. The “Plant response rating, Morningglory” value ([4]; 125 g ai/ha) was 0, the “Plant response rating, Morningglory” value ([4]; 500 g ai/ha) was 50 and the “Plant response rating, Pigweed” value ([5]; 125 g ai/ha) was 0. For the same compound, the “Plant response rating, Pigweed” value ([5]; 500 g ai/ha) was 40, the “Plant response rating, Velvetleaf” value ([6]; 125 g ai/ha) was 0 and the “Plant response rating, Velvetleaf” value ([6]; 500 g ai/ha) was 30. For the same compound, the “Plant response rating, Wheat” value ([7]; 125 g ai/ha) was 0, the “Plant response rating, Wheat” value ([7]; 500 g ai/ha) was 20 and the “Plant response rating, Corn” value (corn (Zea mays) [8]; 125 g ai/ha) was 0. The “Plant response rating, Corn” value (corn (Zea mays) [8]; 500 g ai/ha) was 0, the “Plant response rating, Barnyardgrass” value ([9]; 125 g ai/ha) was 70 and the “Plant response rating, Barnyardgrass” value ([9]; 500 g ai/ha) was 90. For the same compound, the “Plant response rating, Crabgrass, Large” value ([10]; 125 g ai/ha) was 30, the “Plant response rating, Crabgrass, Large” value ([10]; 500 g ai/ha) was 70 and the “Plant response rating, Foxtail, Giant” value ([11]; 125 g ai/ha) was 70. The “Plant response rating, Foxtail, Giant” value ([11]; 500 g ai/ha) was 80, the “Plant response rating, Morningglory” value ([12]; 125 g ai/ha) was 10 and the “Plant response rating, Morningglory” value ([12]; 500 g ai/ha) was 20. For the same compound, the “Plant response rating, Pigweed” value ([13]; 125 g ai/ha) was 0, the “Plant response rating, Pigweed” value ([13]; 500 g ai/ha) was 10 and the “Plant response rating, Velvetleaf” value ([14]; 125 g ai/ha) was 0. For the same compound, the “Plant response rating, Velvetleaf” value ([14]; 500 g ai/ha) was 30, the “Plant response rating, Wheat” value ([15]; 125 g ai/ha) was 0 and the “Plant response rating, Wheat” value ([15]; 500 g ai/ha) was 30. For the same compound, the “Plant response rating, Corn” value (corn (Zea mays) [16]; 125 g ai/ha) was 0, the “Plant response rating, Corn” value (corn (Zea mays) [16]; 500 g ai/ha) was 0 and the “Plant response rating, Rice” value (rice (Oryza sativa); 31 g ai/ha) was 0. For the same compound, the “Plant response rating, Rice” value (rice (Oryza sativa); 62 g ai/ha) was 0, the “Plant response rating, Rice” value (rice (Oryza sativa); 125 g ai/ha) was 0 and the “Plant response rating, Rice” value (rice (Oryza sativa); 250 g ai/ha) was 0. The “Plant response rating, Sedge, Umbrella” value ([17]; 31 g ai/ha) was 0, the “Plant response rating, Sedge, Umbrella” value ([17]; 62 g ai/ha) was 0 and the “Plant response rating, Sedge, Umbrella” value ([17]; 125 g ai/ha) was 0. For the same compound, the “Plant response rating, Sedge, Umbrella” value ([17]; 250 g ai/ha) was 0, the “Plant response rating, Ducksalad” value ([18]; 31 g ai/ha) was 0 and the “Plant response rating, Ducksalad” value ([18]; 62 g ai/ha) was 0. The “Plant response rating, Ducksalad” value ([18]; 125 g ai/ha) was 0, the “Plant response rating, Ducksalad” value ([18]; 250 g ai/ha) was 0 and the “Plant response rating, Barnyardgrass” value ([19]; 31 g ai/ha, scale 0 to 100) was 0. The “Plant response rating, Barnyardgrass” value ([19]; 62 g ai/ha, scale 0 to 100) was 0, the “Plant response rating, Barnyardgrass” value ([19]; 125 g ai/ha, scale 0 to 100) was 0 and the “Plant response rating, Barnyardgrass” value [19, 20] was 0.
With CC1(C)CC(S(=O)(=O)Cc2c(C(F)(F)F)nc3n(c2=O)CCCO3)=NO1 [Compound 4] the “Plant response rating, Barnyardgrass” value ([1]; 125 g ai/ha) was 70, the “Plant response rating, Barnyardgrass” value ([1]; 500 g ai/ha) was 100 and the “Plant response rating, Crabgrass, Large” value ([2]; 125 g ai/ha) was 60. For the same compound, the “Plant response rating, Crabgrass, Large” value ([2]; 500 g ai/ha) was 100, the “Plant response rating, Foxtail, Giant” value ([3]; 125 g ai/ha) was 90 and the “Plant response rating, Foxtail, Giant” value ([3]; 500 g ai/ha) was 100. For the same compound, the “Plant response rating, Morningglory” value ([4]; 125 g ai/ha) was 0, the “Plant response rating, Morningglory” value ([4]; 500 g ai/ha) was 70 and the “Plant response rating, Pigweed” value ([5]; 125 g ai/ha) was 30. For the same compound, the “Plant response rating, Pigweed” value ([5]; 500 g ai/ha) was 100, the “Plant response rating, Velvetleaf” value ([6]; 125 g ai/ha) was 10 and the “Plant response rating, Velvetleaf” value ([6]; 500 g ai/ha) was 90. For the same compound, the “Plant response rating, Wheat” value ([7]; 125 g ai/ha) was 0, the “Plant response rating, Wheat” value ([7]; 500 g ai/ha) was 40 and the “Plant response rating, Corn” value (corn (Zea mays) [8]; 125 g ai/ha) was 0. The “Plant response rating, Corn” value (corn (Zea mays) [8]; 500 g ai/ha) was 50, the “Plant response rating, Barnyardgrass” value ([9]; 125 g ai/ha) was 70 and the “Plant response rating, Barnyardgrass” value ([9]; 500 g ai/ha) was 80. For the same compound, the “Plant response rating, Crabgrass, Large” value ([10]; 125 g ai/ha) was 60, the “Plant response rating, Crabgrass, Large” value ([10]; 500 g ai/ha) was 80 and the “Plant response rating, Foxtail, Giant” value ([11]; 125 g ai/ha) was 70. For the same compound, the “Plant response rating, Foxtail, Giant” value ([11]; 500 g ai/ha) was 80, the “Plant response rating, Morningglory” value ([12]; 125 g ai/ha) was 0 and the “Plant response rating, Morningglory” value ([12]; 500 g ai/ha) was 50. For the same compound, the “Plant response rating, Pigweed” value ([13]; 125 g ai/ha) was 30, the “Plant response rating, Pigweed” value ([13]; 500 g ai/ha) was 60 and the “Plant response rating, Velvetleaf” value ([14]; 125 g ai/ha) was 50. The “Plant response rating, Velvetleaf” value ([14]; 500 g ai/ha) was 70, the “Plant response rating, Wheat” value ([15]; 125 g ai/ha) was 0 and the “Plant response rating, Wheat” value ([15]; 500 g ai/ha) was 10. The “Plant response rating, Corn” value (corn (Zea mays) [16]; 125 g ai/ha) was 0, the “Plant response rating, Corn” value (corn (Zea mays) [16]; 500 g ai/ha) was 50 and the “Plant response rating, Rice” value (rice (Oryza sativa); 31 g ai/ha) was 0. For the same compound, the “Plant response rating, Rice” value (rice (Oryza sativa); 62 g ai/ha) was 0, the “Plant response rating, Rice” value (rice (Oryza sativa); 125 g ai/ha) was 0 and the “Plant response rating, Rice” value (rice (Oryza sativa); 250 g ai/ha) was 0. The “Plant response rating, Sedge, Umbrella” value ([17]; 31 g ai/ha) was 0, the “Plant response rating, Sedge, Umbrella” value ([17]; 62 g ai/ha) was 0 and the “Plant response rating, Sedge, Umbrella” value ([17]; 125 g ai/ha) was 0. For the same compound, the “Plant response rating, Sedge, Umbrella” value ([17]; 250 g ai/ha) was 0, the “Plant response rating, Ducksalad” value ([18]; 31 g ai/ha) was 0 and the “Plant response rating, Ducksalad” value ([18]; 62 g ai/ha) was 0. The “Plant response rating, Ducksalad” value ([18]; 125 g ai/ha) was 0, the “Plant response rating, Ducksalad” value ([18]; 250 g ai/ha) was 0 and the “Plant response rating, Barnyardgrass” value ([19]; 31 g ai/ha, scale 0 to 100) was 0. The “Plant response rating, Barnyardgrass” value ([19]; 62 g ai/ha, scale 0 to 100) was 0, the “Plant response rating, Barnyardgrass” value ([19]; 125 g ai/ha, scale 0 to 100) was 0 and the “Plant response rating, Barnyardgrass” value [19, 20] was 0.
